Experiment: molar heat capacity at constant pressure
Conditions: 101.33 kPa, Liquid, heat bridge-scanning calorimeter

CCCCn1cc[n+](C)c1.F[P-](F)(F)(F)(F)F [1-butyl-3-methylimidazolium hexafluorophosphate]
Conditions	molar heat capacity at constant pressure [J/K/mol]
300.05 K	409.22
300.17 K	409.79
300.3 K	410.08
300.43 K	410.08
300.55 K	410.36
300.81 K	410.36
300.94 K	410.36
301.07 K	410.64
301.19 K	410.93
301.32 K	410.93
301.45 K	411.21
301.57 K	410.93
301.7 K	411.5
301.83 K	411.5
301.95 K	411.5
302.08 K	411.78
302.35 K	412.06
302.48 K	412.06
302.61 K	412.06
302.73 K	412.35
302.86 K	412.35
302.99 K	412.35
303.12 K	412.35
303.24 K	412.92
303.37 K	412.92
303.63 K	413.2
303.75 K	413.2
303.89 K	413.2
304.02 K	413.2
304.15 K	413.2
304.27 K	413.2
304.4 K	413.49
304.53 K	413.49
304.66 K	413.77
304.78 K	414.05
304.91 K	414.05
305.19 K	414.34
305.31 K	414.34
305.44 K	414.34
305.57 K	414.62
305.7 K	414.91
305.82 K	414.62
305.95 K	414.91
306.08 K	415.19
306.2 K	415.19
306.46 K	415.19
306.59 K	415.19
306.72 K	415.47
306.84 K	415.47
306.97 K	415.47
307.1 K	415.76
307.22 K	415.76
307.35 K	416.33
307.48 K	415.76
307.61 K	416.04
307.73 K	416.04
308.01 K	416.04
308.13 K	416.61
308.26 K	416.33
308.39 K	416.61
308.51 K	416.61
308.64 K	416.9
308.77 K	416.61
308.89 K	416.61
309.02 K	416.9
309.28 K	416.9
309.41 K	417.18
309.53 K	417.46
309.66 K	417.46
309.8 K	417.46
309.93 K	417.46
310.05 K	417.46
310.18 K	417.46
310.31 K	417.75
310.44 K	417.75
310.56 K	418.03
310.84 K	418.32
310.97 K	418.32
311.09 K	418.32
311.22 K	418.32
311.35 K	418.6
311.47 K	418.32
311.6 K	418.6
311.73 K	418.6
311.86 K	418.32
312.11 K	418.6
312.24 K	418.6
312.37 K	418.88
312.49 K	418.88
312.62 K	419.17
312.75 K	419.17
312.87 K	419.45
313 K	419.45
313.13 K	419.45
313.25 K	419.45
313.38 K	419.74
313.65 K	420.02
313.78 K	420.02
313.91 K	420.02
314.04 K	420.02
314.16 K	420.02
314.29 K	420.02
314.42 K	420.31
314.54 K	420.59
314.67 K	420.59
314.93 K	420.59
315.05 K	420.59
315.18 K	420.87
315.31 K	420.87
315.43 K	420.87
315.56 K	420.87
315.7 K	420.87
315.82 K	420.87
315.95 K	421.16
316.08 K	420.87
316.2 K	421.16
316.48 K	421.16
316.6 K	421.44
316.73 K	421.73
316.86 K	421.73
316.98 K	421.73
317.11 K	421.73
317.24 K	421.73
317.36 K	421.73
317.49 K	421.44
317.75 K	422.01
317.88 K	422.01
318 K	422.29
318.13 K	422.29
318.26 K	422.58
318.38 K	422.58
318.51 K	422.58
318.64 K	422.58
318.76 K	422.86
318.89 K	422.58
319.02 K	423.15
319.29 K	422.86
319.42 K	422.86
319.54 K	422.86
319.67 K	422.86
319.8 K	422.86
319.92 K	422.86
320.05 K	423.15
320.18 K	423.15
320.3 K	423.15
320.56 K	423.43
320.69 K	423.43
320.81 K	423.72
320.94 K	423.72
321.06 K	423.72
321.19 K	424
321.32 K	424
321.44 K	424
321.57 K	424
321.71 K	424
321.83 K	424.28
322.11 K	424.28
322.23 K	424.28
322.36 K	424
322.49 K	424
322.61 K	424
322.74 K	424.28
322.87 K	424.28
322.99 K	424.57
323.12 K	424.57
323.38 K	424.57
323.5 K	424.57
323.63 K	424.85
323.76 K	424.85
323.88 K	424.85
324.01 K	425.14
324.14 K	425.14
324.26 K	425.14
324.39 K	425.42
324.51 K	425.42
324.64 K	425.42
324.91 K	425.71
325.04 K	425.71
325.17 K	425.71
325.29 K	425.71
325.42 K	425.71
325.54 K	425.99
325.67 K	425.71
325.8 K	425.99
325.92 K	426.27
326.18 K	426.27
326.31 K	426.27
326.43 K	426.27
326.56 K	426.56
326.68 K	426.56
326.81 K	426.27
326.94 K	426.56
327.06 K	426.56
327.19 K	426.56
327.31 K	426.56
327.44 K	426.84
327.72 K	427.13
327.85 K	427.13
327.98 K	427.13
328.1 K	427.13
328.23 K	427.41
328.35 K	427.41
328.48 K	427.41
328.61 K	427.41
328.73 K	427.41
328.99 K	427.69
329.11 K	427.69
329.24 K	427.98
329.37 K	427.69
329.49 K	427.98
329.62 K	427.98
329.74 K	428.26
329.87 K	428.26
330 K	428.26
330.12 K	427.98
330.25 K	428.26
330.52 K	428.55
330.65 K	428.55
330.77 K	428.55
330.9 K	428.55
331.03 K	428.55
331.15 K	428.55
331.28 K	428.83
331.4 K	429.12
331.53 K	429.12
331.79 K	429.12
331.91 K	429.12
332.04 K	429.12
332.16 K	429.12
332.29 K	429.12
332.42 K	429.4
332.54 K	429.4
332.67 K	429.4
332.79 K	429.4
332.92 K	429.4
333.05 K	429.4
333.32 K	429.68
333.45 K	429.68
333.58 K	429.97
333.71 K	429.97
333.83 K	429.97
333.96 K	429.97
334.08 K	429.97
334.21 K	429.97
334.34 K	429.97
334.59 K	430.25
334.72 K	430.25
334.84 K	430.25
334.97 K	430.25
335.1 K	430.54
335.22 K	430.54
335.35 K	430.54
335.47 K	430.54
335.6 K	430.82
335.73 K	430.82
335.85 K	430.82
336.12 K	431.1
336.25 K	430.82
336.38 K	430.82
336.5 K	431.1
336.63 K	431.1
336.75 K	431.1
336.88 K	431.39
337.01 K	431.39
337.13 K	431.39
337.39 K	431.39
337.51 K	431.39
337.64 K	431.39
337.76 K	431.39
337.89 K	431.67
338.02 K	431.67
338.14 K	431.96
338.27 K	431.96
338.39 K	431.96
338.52 K	432.24
338.64 K	432.24
338.91 K	432.24
339.04 K	432.53
339.17 K	432.53
339.29 K	432.53
339.43 K	432.81
339.55 K	432.81
339.68 K	432.81
339.8 K	432.81
339.93 K	433.09
340.19 K	433.09
340.31 K	433.38
340.44 K	433.38
340.56 K	433.38
340.69 K	433.38
340.82 K	433.66
340.94 K	433.66
341.07 K	433.66
341.19 K	433.66
341.32 K	433.95
341.45 K	433.95
341.72 K	434.23
341.85 K	434.23
341.97 K	434.23
342.1 K	434.23
342.22 K	434.23
342.35 K	434.51
342.48 K	434.51
342.6 K	434.51
342.73 K	434.51
343 K	434.8
343.13 K	434.8
343.25 K	434.8
343.38 K	435.08
343.51 K	435.08
343.63 K	435.08
343.76 K	435.37
343.88 K	435.37
344.01 K	435.37
344.13 K	435.37
344.26 K	435.65
344.53 K	435.94
344.66 K	435.65
344.78 K	435.94
344.91 K	435.94
345.03 K	435.94
345.16 K	435.94
345.29 K	436.22
345.42 K	436.5
345.55 K	436.22
345.82 K	436.79
345.95 K	436.5
346.07 K	437.07
346.2 K	436.79
346.32 K	437.07
346.45 K	437.07
346.57 K	437.07
346.7 K	437.07
346.82 K	437.36
346.95 K	437.36
347.08 K	437.64
347.35 K	437.36
347.47 K	437.64
347.6 K	437.64
347.72 K	437.64
347.85 K	437.93
347.97 K	437.93
348.1 K	437.93
348.22 K	437.93
348.35 K	438.21
348.63 K	438.21
348.76 K	438.21
348.88 K	438.49
349.01 K	438.21
349.13 K	438.49
349.26 K	438.49
349.38 K	438.78
349.51 K	438.78
349.63 K	438.78
349.76 K	438.78
349.88 K	439.06
350.19 K	439.35
350.32 K	439.35
350.44 K	439.35
350.57 K	439.35
350.69 K	439.63
350.82 K	439.63
350.94 K	439.63
351.07 K	439.63
351.21 K	439.35
351.49 K	439.91
351.61 K	439.63
351.74 K	439.91
351.86 K	440.2
351.99 K	440.2
352.11 K	440.2
352.24 K	440.2
352.36 K	440.48
352.49 K	440.48
352.61 K	440.48
352.74 K	440.77
353.01 K	440.77
353.13 K	440.77
353.26 K	441.05
353.38 K	441.05
353.51 K	441.34
353.64 K	441.34

— the NIST ThermoML archive (doi:10.1021/je034102r)
